SMILES strings stand for the structures.

For data set [1], the system named is IL-10 production in PBMCs. The data set can be described thus: IL-10 induction assay. In kind it is cell-based. Particulars: PBMC; TPA/PHA stimulated human PBMCs, IL-10 in supernatant by immunoassay. The text has this: 7. The IL-10 induction assay is described in the “Assay” section of the Description, infra.
The IL-10 Induction Assay
This is an in vitro efficacy assay for psoriasis, abscess and adhesion. Psoriasis involves both keratinocytes and immune cells. IL-10 is a unique cytokine because it is anti-inflammatory and immunosuppressive. This assay tells us whether a VDRM is able to function as an agonist in PBMCs (primary blood mononuclear cells) or not. A lower EC50 value is desirable in this assay since a compound with a lower EC50 value will be a better agonist in PBMCs. An acceptable test result is an EC50 value of less than 200 nM. Preferred assay results are EC50 values of less than 100 nM.
Isolation of Peripheral Blood Mononuclear Cells (PBMCs):
Collect 50 ml of human blood and dilute with media, RPMI-1640. Add diluted blood to sterile tubes with ficol. Centrifuge the tubes. Discard the top layer and collect the cells from middle layer. Divide all cells into four tubes and add media. Centrifuge. Aspirate off media and resuspend the cells. Collect all cells. Centrifuge at 1200 rpm for 10 m. Resuspend the cells in RPMI-1640 with 2% FBS and then count cells.
Stimulation of PBMC: Prepare TPA in DMSO. Dissolve PHA in water. Plate TPA/PHA treated PBMCs in well plates. Incubate the cells.
Treatment: Prepare all compound dilutions in plain RPMI-1640 media. Add diluted compound and incubate. Sample Collection and assay: Remove all the cells by centrifugation and assay the supernatant for IL-10 by immunoassay using anti-human IL-10 antibody coated beads, as described by the manufacturer (Linco Research Inc., St. Charles, Mo.).

Data set [2] can be described thus: Mouse hypercalcemia assay. It is filed as in vivo. On the procedure: 5. The Mouse Hypercalcemia test is described in the “Assay” section of the Description, infra.
The Mouse Hypercalcemia Assay
The Mouse Hypercalcemia Assay is a six day hypercalcemia test for toxicity and selectivity. Acceptable test results are levels greater than 30 μg/kg/day. Preferred assay results are levels greater than 300 μg/kg/day.
Weanling, virus—antibody-free, five to six weeks old female DBF mice (Harlan, Indianapolis, Ind.) are used for all the studies. Animals are allowed to acclimate to local vivarium conditions for 2 days. Mice are maintained on a 12 hr light/dark cycle at 22° C. with ad lib access to food (TD 5001 with 1.2% Ca and 0.9% P, Teklad, Madison, Wis.) and water. The animals then are divided into groups with 4-5 mice per group. Different doses of test compounds prepared in 10% ethanol and 90% sesame oil, or in an aqueous suspension of sodium lauryl sulfate and CMC (the latter formulation for acidic compounds) are administered to mice orally via gavage for 6 days. 1α-25(OH)2D3 0.5 μg/kg/d was also given to one group of mice as the positive control. Serum ionized calcium is evaluated at 6 hours after the last dosing under isoflurane anesthesia by Ciba-Corning Ca++/PH Analyzer, (Model 634, Chiron Diagnostics Corp., East Walpole, Mass.). Raw data of group differences is assessed by analysis of variance (ANOVA) using Fisher's protected least significant difference (PLSD) where the significance level was P<0.05.

The subject of a further data set is rat osteocalcin promoter. In words: OCN (osteocalcin) promoter assay. It is filed as cell-based. To be noted: RG-15 (ROS 17/2.8) cells, 48 hr treatment, luciferase reporter. On the procedure: 4. The OCN Promoter test is described in the “Assay” section of the Description, infra.
The OCN (Osteocalcin) Promoter Assay
The OCN Promoter Assay is an indicator and marker for osteoporosis. Desired assay results are EC50 less than or equal to 325 nM. Preferred assay results are less than 50 nM.
The activation of osteocalcin by VDR ligands is evaluated in a rat osteoblast-like cell line RG-15 (ROS 17/2.8) stably expressing rat osteocalcin promoter fused with luciferase reporter gene. The stable cell lines are established as reported before (Activation of Osteocalcin Transcription involves interaction of protein kinase A- and Protein kinase C-dependent pathways. Boguslawski, G., Hale, L. V., Yu, X.-P., Miles, R. R., Onyia, J. E., Santerre R. F., Chandrasekhar, S. J Biol. Chem. 275, 999-1006, 2000). Confluent RG-15 cells maintained in DMEM/F-12 medium (3:1) containing 5% FBS, 300 μg/ml G418 and at 37° C. under 5% CO2/95% air atmosphere are trypsinized (0.25% trypsin) and plated into white opaque 96-well cell culture plates (25000 cells/well). After 24 hr, cells (in DMEM/F-12 medium+2% FBS) are treated with various concentrations of compounds, dissolved in DMSO. The final DMSO concentration remains at 0.01% (v/v). After 48 hr treatment, the medium is removed, cells are lysed with 50 μl of lysis buffer (From Luciferase reporter assay system, Roche Diagnostics, Indianapolis, Ind.) and then assayed for luciferase activity using the Luciferase Reporter Gene Assay kit from Boehringer Mannheim as per manufacturer's specifications.
For orientation: Reporter assays use an easily measured gene product as a stand-in for the process of interest.

For data set [3], the system named is KERtr cells (Human skin keratinocyte). The data set can be described thus: Keratinocyte proliferation assay. In kind it is cell-based. Particulars: 72 hr, BrdU incorporation, read-out: Keranocyte Proliferation IC50. On the procedure:
6. The keratinocyte proliferation assay is described in the “Assay” section of the Description, infra.
The Keratinocyte Proliferation Assay
This Assay is indicative for the treatment of psoriasis. An acceptable test result is IC50 value of less than or equal to 300 nM. Preferred assay results are IC50 values of less than 100 nM.
KERtr cells (Human skin keratinocyte are transformed with a retrovirus vector, obtained from ATCC, then are plated in 96-well flat-bottomed plates (3000 cells/well) in 100 μl keratinocyte serum free medium supplemented with bovine pituitary extract in the absence of EGF (Life Technologies, Rockville, Md.) and are incubated at 37° C. for two days. The cells are treated with various concentrations of VDR ligands (ten-fold serial dilution from 10,000 nM to 0.1 nM in triplicate), dissolved in 100 μl keratinocyte serum free medium supplemented with bovine pituitary extract in the absence of EGF and are incubated at 37° C. for 72 hr. BrdU (5-bromo-2′-deoxyuridine) incorporation is analyzed as a measure of DNA replication (Cell proliferation ELISA kit, Roche Diagnostics, Indianapolis, Ind.) and absorbance is measured at […]. Potency values (IC50) values were determined as the concentration (nM) of compound that elicited a half-maximal response.
(In general: Uptake of a labelled nucleoside into DNA is a usual measure of proliferation.)

Setting [4] is: female, DBF, mouse, in vivo, po, 6 days.
Setting [5] is: no effect level: highest dose that did not cause hypercalcemia, oral gavage for 6 days, female DBF mice, serum ionized calcium.

What is called EC50 is the concentration needed to bring the measured effect to its halfway point. Take `CCC(CC)(c1ccc(OCC(=O)C(C)(C)C)c(C)c1)c1ccc2cc(C(=O)O)ccc2c1` [Ex. 1, 6-{1-[4-(3,3-dimethyl-2-oxobutoxy)-3-methylphenyl]-1-ethylpropyl}naphthalene-2-carboxylic acid]: the figures for the IC50 in data set [1] and in data set [3] were 76 nM and 653 nM, respectively. Further, the “Mouse Hypercal” value in data set [2] (setting [4]) is 1000 µg/kg/day. In the data set with rat osteocalcin promoter (Rattus norvegicus, 48 h), the EC50 was determined as 2.6 nM.
In the case of `CCC(CC)(c1ccc(OCC(=O)C(C)(C)C)c(C)c1)c1ccc2cc(C(=O)NCC(=O)O)ccc2c1` [Ex. 3, [(6-{1-[4-(3,3-Dimethyl-2-oxo-butoxy)-3-methylphenyl]-1-ethylpropyl}naphthalene-2-carbonyl)amino]acetic acid], in data set [2] (setting [5]), the “Mouse Hypercal” value was <300 µg/kg/day. The EC50 in the data set on rat osteocalcin promoter (Rattus norvegicus, 48 h) came to 0.1 nM. Also, in data set [3], the IC50 is 2 nM.
`CCC(CC)(c1ccc(OCC(=O)C(C)(C)C)c(C)c1)c1ccc2cc(C(=O)N(C)CC(=O)O)ccc2c1` [Ex. 5, [(6-{1-[4-(3,3-Dimethyl-2-oxobutoxy)-3-methylphenyl]-1-ethylpropyl}naphthalene-2-carbonyl)methylamino]acetic acid]: the IC50 in data set [1] was found to be 5 nM; in data set [3], 24 nM. For the same compound, the “Mouse Hypercal” value in data set [2] (setting [5]) was <30 µg/kg/day. For the same compound, in the data set with rat osteocalcin promoter (Rattus norvegicus, 48 h), the EC50 came out at 0.2 nM.
With `CCC(CC)(c1ccc(OCC(O)C(C)(C)C)c(C)c1)c1ccc2cc(C(=O)O)ccc2c1` (single isomer, unassigned) [Ex. 2A, 6-{1-Ethyl-1-[4-(2-hydroxy-3,3-dimethyl-butoxy)-3-methyl-phenyl]-propyl}-naphthalene-2-carboxylic acid], the “Mouse Hypercal” value in data set [2] (setting [5]) is 300 µg/kg/day. The EC50 in the data set on rat osteocalcin promoter is 6 nM.
Regarding `CCC(CC)(c1ccc(OCC(=O)C(C)(C)C)c(C)c1)c1ccc2cc(C(=O)N(C)C)ccc2c1` [Ex. 4, 6-{1-[4-(3,3-dimethyl-2-oxobutoxy)-3-methylphenyl]-1-ethylpropyl}naphthalene-2-carboxylic acid dimethylamide], in data set [2] (setting [4]), the “Mouse Hypercal” value is 1000 µg/kg/day. Further, in the data set on rat osteocalcin promoter (Rattus norvegicus, 48 h), the EC50 amounted to 41 nM. Further, the IC50 in data set [3] is > 1000 nM.

The record behind these values is patent US7943795B2, “Vitamin D receptor modulators” (Eli Lilly and Company, priority 2004, dated 2011).
